Data from publication PMC6121034 (Frontiers in Cellular Neuroscience, 2018).

Assays:
Type in all cases: cell-based
[1] = biological target: T1, α1β2γ2 GABAA receptor (α1 subunit), ALA mutant (Rattus norvegicus, UniProt P18508+P62813+P63138, P62813:F91A); test: whole-cell patch clamp, currents evoked by […] GABA; parameters: dose or concentration left out as unconfirmed
T1 construct: gene Gabra1; rat α1/β2/γ2L subunits expressed in HEK-293 cells; with GABAA receptor β2 (Gabrb2) and γ2L (Gabrg2) subunits
T1 sequence (P62813 28-455 F91A): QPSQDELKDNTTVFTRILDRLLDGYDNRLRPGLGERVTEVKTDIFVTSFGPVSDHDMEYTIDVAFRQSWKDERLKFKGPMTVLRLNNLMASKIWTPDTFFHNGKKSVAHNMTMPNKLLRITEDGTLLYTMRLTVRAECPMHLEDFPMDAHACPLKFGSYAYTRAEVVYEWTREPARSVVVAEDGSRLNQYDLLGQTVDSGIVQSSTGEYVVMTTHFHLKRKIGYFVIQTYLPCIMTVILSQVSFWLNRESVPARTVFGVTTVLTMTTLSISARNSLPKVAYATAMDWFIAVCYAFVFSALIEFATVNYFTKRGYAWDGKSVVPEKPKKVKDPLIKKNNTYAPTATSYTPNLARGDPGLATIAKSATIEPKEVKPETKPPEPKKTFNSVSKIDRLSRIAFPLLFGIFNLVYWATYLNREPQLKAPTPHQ
T1 sequence (P63138 26-474): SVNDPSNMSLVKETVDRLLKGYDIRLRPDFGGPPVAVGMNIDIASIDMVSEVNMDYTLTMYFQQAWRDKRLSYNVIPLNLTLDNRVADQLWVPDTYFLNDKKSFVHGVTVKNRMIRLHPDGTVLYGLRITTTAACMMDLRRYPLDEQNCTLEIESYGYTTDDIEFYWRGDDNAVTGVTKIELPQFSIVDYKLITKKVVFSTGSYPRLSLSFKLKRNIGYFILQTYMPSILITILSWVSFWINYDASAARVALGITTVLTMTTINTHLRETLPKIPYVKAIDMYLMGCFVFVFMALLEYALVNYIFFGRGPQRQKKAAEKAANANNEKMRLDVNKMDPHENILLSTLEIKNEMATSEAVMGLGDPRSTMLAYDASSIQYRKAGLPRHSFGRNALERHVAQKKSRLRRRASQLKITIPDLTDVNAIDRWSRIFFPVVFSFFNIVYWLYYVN
T1 sequence (P18508 39-466): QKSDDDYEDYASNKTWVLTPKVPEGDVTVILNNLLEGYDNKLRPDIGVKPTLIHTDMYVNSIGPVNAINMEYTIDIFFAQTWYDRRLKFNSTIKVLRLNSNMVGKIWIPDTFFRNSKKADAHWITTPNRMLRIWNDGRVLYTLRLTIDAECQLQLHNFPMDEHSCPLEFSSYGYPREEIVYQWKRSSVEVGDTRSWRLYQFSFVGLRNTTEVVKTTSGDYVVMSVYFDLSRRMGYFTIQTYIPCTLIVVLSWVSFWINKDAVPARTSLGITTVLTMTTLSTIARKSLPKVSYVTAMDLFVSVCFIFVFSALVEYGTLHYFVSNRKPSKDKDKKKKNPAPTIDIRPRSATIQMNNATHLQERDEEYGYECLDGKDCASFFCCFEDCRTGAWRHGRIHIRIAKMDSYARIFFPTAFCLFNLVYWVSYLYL

[2] = biological target: T2, α1β2γ2 GABAA receptor (α1 subunit), LEU mutant (Rattus norvegicus, UniProt P18508+P62813+P63138, P62813:F91L); test: whole-cell patch clamp, currents evoked by […] GABA
T2 construct: gene Gabra1; rat α1/β2/γ2L subunits expressed in HEK-293 cells; with GABAA receptor β2 (Gabrb2) and γ2L (Gabrg2) subunits
T2 sequence (P62813 28-455 F91L): as the sequence (P62813 28-455 F91A) above, with A64L counted along it
T2 sequence (P63138 26-474): as the sequence (P63138 26-474) above
T2 sequence (P18508 39-466): as the sequence (P18508 39-466) above

[3] = biological target: T3, α1β2γ2 GABAA receptor (α1 subunit) (Rattus norvegicus, UniProt P18508+P62813+P63138); test: whole-cell patch clamp dose-response, partial agonist
T3 construct: gene Gabra1; rat α1/β2/γ2L subunits expressed in HEK-293 cells; with GABAA receptor β2 (Gabrb2) and γ2L (Gabrg2) subunits
T3 sequence (P62813 28-455): as the sequence (P62813 28-455 F91A) above, with A64F counted along it
T3 sequence (P63138 26-474): as the sequence (P63138 26-474) above
T3 sequence (P18508 39-466): as the sequence (P18508 39-466) above

Row | SMILES | whole-cell patch clamp, currents evoked by GABA [1] | whole-cell patch clamp, currents evoked by 100 mM GABA [2] | EC50 [3] [µM]
1 | NCCCC(=O)O [GABA] | Typical traces of current responses to saturating [GABA] application (black traces) | Typical traces of current responses to saturating [GABA] application (black traces) | 
2 | O=S(=O)(O)C1CCNCC1 [P4S, piperidine-4-sulfonic acid] |  |  | 46
